Data reported in patent US12246095B2, “Oral dosage forms comprising a hops extract” (The New Zealand Institute for Plant and Food Research …, priority 2018, dated 2025).
≈ marks a conversion by molar mass, not a printed value.

Test system: Hutu80 enteroendocrine cells
Test: Intracellular calcium in Hutu80 enteroendocrine cells as marker of Tas2R activation
Assay type: cell-based, human
Conditions: for EC 50: Hutu-80, change in intracellular calcium at 5 min, doses 200 to 0.2 μM, Pacific Gem extract and purified acids
Method: The capacity for hops extracts to activate bitter taste receptors was assessed using intracellular calcium concentrations [Ca2+]i as a marker of both Tas2R activation and appetite suppressing hormone release. A screening assay was carried out to compare the effects of high alpha acid and low alpha acid hops extracts on intracellular calcium in Hutu80 enteroendocrine cells. The acid composition of the high alpha acid hops was alpha acid (13.9%), beta acid (7.4%). The acid composition of the low alpha acid hops was alpha acid (2.7%) beta acid (5.0%).
An EC50 dose response showing the relative change in intracellular calcium in Hutu80 enteroendocrine cells at 5 min following the addition of either a high alpha acid (Pacific Gem, 13.9%) or low alpha acid (Wai-iti, 2.7%) hops extract is shown in FIG. 1 and Table 1.
Activation of human TAS2Rs receptors was measured by monitoring variations in intracellular Ca^2+ concentrations ([Ca^2+]i) using a Flurostar Omega (BMG LABTECH, Germany) (excitation 485 nm/emission 520 nm).
Hutu-80 cells (Cat #HTB-40, ATCC Manassas, Virginia) were seeded in supplemented MEM (Cat #11095-080, Thermo Fisher, Walthan, Massachusetts) into Poly-Lysin-coated 96-well black wall, clear bottom plates (Cat #356640, Corning Inc. New York) at a density of 3.5×10^5 cells/ml, 100 μl/wel, cultured overnight and then loaded with the Ca^2+-sensitive fluorescent dye Fluo 4-AM (Cat #F14201, Thermo Fisher, Walthan, Massachusetts), following suppliers guidelines. […]
Compounds to test were prepared in DMSO (Cat #D8418, Sigma, St. Louis, Missouri) and transferred onto the cells immediately prior to commencing of the assay measurements. To obtain a baseline, fluorescence signals (excitation 485 nm/emission 520 nm) were measured immediately before the addition of compounds on the cells.
The change in intracellular calcium in Hutu80 enteroendocrine cells was measured at 5 min following the addition of purified hops acids at doses of 200, 63.2, 20, 6.32, 2, 0.632, 0.2 and 0 μM.

CC(C)=CCC1=C(O)C(O)(CC=C(C)C)C(=O)C(C(=O)C(C)C)=C1O (stereo not drawn) [Cohumulone, cohumulone]
stimulating bitter taste receptor (Tas2R) signalling in human enteroendocrine cells (Hutu80, intracellular calcium): activity at the lowest concentration
EC 50: 1.153 µg/mL (≈ 3.31 µM)

CC(C)=CCC1=C(O)C(C(=O)C(C)C)=C(O)C(CC=C(C)C)(CC=C(C)C)C1=O [Colupulone, colupulone]
EC 50: 12.72 µg/mL (≈ 31.8 µM)
